The assay deals with Plasmodium falciparum. Put plainly: Antiplasmodial activity against Plasmodium falciparum 3D7 infected in RBC by flow cytometry analysis. In kind it is functional, organism-based. A general note: In flow cytometry, cells or beads pass a laser one at a time.

For orientation: IC50 means the point on the concentration scale where inhibition reaches its midpoint. Low values mean higher potency, high ones lower potency.

Compound `O=C1C(O)=C(C(Sc2ccc3ccccc3c2)c2ccc([N+](=O)[O-])cc2)C(=O)c2ccccc21` (racemic) showed an IC50 of 19.9 µM. To `O=C1C(O)=C(CSc2ccc(F)cc2)C(=O)c2ccccc21` belongs 7 µM; to `Cc1ccccc1SC(C1=C(O)C(=O)c2ccccc2C1=O)c1ccccc1` (racemic), 17.6 µM.

`O=C1C(O)=C([C@H]2CC[C@H](c3ccc(Cl)cc3)CC2)C(=O)c2ccccc21` [ATOVAQUONE] registered an IC50 of 0.003 µM. `O=C1C(O)=C(CSc2ccc3ccccc3c2)C(=O)c2ccccc21`: the IC50 is 14.5 µM. The result for `O=C1C(O)=C(C(Sc2ccc(Cl)cc2)c2ccc([N+](=O)[O-])cc2)C(=O)c2ccccc21` (racemic) reads 7.5 µM; that for `O=C1C(=O)c2ccccc2C(O)=C1CSc1ccc(Cl)cc1`, 20 µM; that for `Cc1ccc(SC(C2=C(O)C(=O)c3ccccc3C2=O)c2ccc([N+](=O)[O-])cc2)cc1` (racemic), 27 µM. The result for `O=C1C(O)=C(C(Sc2ccc(O)cc2)c2ccc([N+](=O)[O-])cc2)C(=O)c2ccccc21` (racemic) reads 7.5 µM. Turning to `CSc1ccc(SCC2=C(O)C(=O)c3ccccc3C2=O)cc1`, the IC50 was found to be 22.3 µM.

In turn, `CSc1ccc(SC(C2=C(O)C(=O)c3ccccc3C2=O)c2ccccc2)cc1` (racemic) gave an IC50 of 18.2 µM.

The compound `Cc1cccc(SC(C2=C(O)C(=O)c3ccccc3C2=O)c2ccccc2)c1` (racemic) displayed an IC50 of 34.2 µM. The compound `Cc1ccccc1SCC1=C(O)C(=O)c2ccccc2C1=O` registered an IC50 of 9.7 µM. The result for `Cc1ccccc1SC(C1=C(O)C(=O)c2ccccc2C1=O)c1ccc([N+](=O)[O-])cc1` (racemic) reads 6.6 µM. `O=C1C(O)=C(C(Sc2ccccc2)c2ccc([N+](=O)[O-])cc2)C(=O)c2ccccc21` (racemic): the IC50 worked out at 16.8 µM.

Compound `Cc1cccc(SCC2=C(O)C(=O)c3ccccc3C2=O)c1` displayed an IC50 of 5.4 µM. The result for `Cc1cccc(SC(C2=C(O)C(=O)c3ccccc3C2=O)c2ccc([N+](=O)[O-])cc2)c1` (racemic) reads 10.7 µM; that for `O=C1C(O)=C(CSc2ccccc2)C(=O)c2ccccc21`, 27.1 µM; that for `O=C1C(O)=C(C(Sc2ccc([N+](=O)[O-])cc2)c2ccccc2)C(=O)c2ccccc21` (racemic), 13.9 µM. The result for `CCCSC(C1=C(O)C(=O)c2ccccc2C1=O)c1ccc([N+](=O)[O-])cc1` (racemic) reads 27.8 µM; that for `CCCSCC1=C(O)C(=O)c2ccccc2C1=O`, 31.8 µM. With `Cc1ccc(SCC2=C(O)C(=O)c3ccccc3C2=O)cc1`, it took 6.8 µM to reach half-maximal inhibition (IC50). To `O=C1C(O)=C(C(Sc2ccc(F)cc2)c2ccc([N+](=O)[O-])cc2)C(=O)c2ccccc21` (racemic) belongs 14.3 µM; to `COc1ccc(SCC2=C(O)C(=O)c3ccccc3C2=O)cc1`, 9.3 µM. Regarding `CCCSC(C1=C(O)C(=O)c2ccccc2C1=O)c1ccccc1` (racemic), the IC50 was determined as 13.8 µM.

`O=C1C(O)=C(CSc2ccc([N+](=O)[O-])cc2)C(=O)c2ccccc21` registered an IC50 of 14.4 µM.
